From publication PMC3705412, “PTP1B Inhibitory and Anti-Inflammatory Effects of Secondary Metabolites Isolated from the Marine-Derived Fungus Penicillium sp. JF-55” (Marine Drugs, 2013) come the findings set out here.

One may read the IC50 as the concentration that gives 50% inhibition.

For experiment [1], the system named is TNF-α production in murine peritoneal macrophages. As to the kind of experiment: TNF-α production in LPS-stimulated macrophages, ELISA. The experiment is classed as cell-based, murine (C57BL/6 mice). As to conditions: Mus musculus, Peritoneal macrophage; pre-treated 12 h, LPS 1 μg/mL 18 h. The protocol:
(§1) C57BL/6 mice were purchased from Orient Bio Co. (Sungnam, Kyung-Kido, Korea). TG-elicited peritoneal macrophages were harvested four days after intraperitoneal (i.p.) injection of 3 mL of TG [37]. Peritoneal lavage was performed using 8 mL of Hanks’ Balanced Salt Solution containing 10 U/mL heparin. The cells were distributed in Roswell Park Memorial Institute medium (RPMI) supplemented with 10% heat-inactivated FBS, in 6-well tissue culture plates (5 × 10^6 cells/mL). The level of PGE2, TNF-α or IL-1β present in each sample was determined using a commercially available kit from R & D Systems. The assay was performed according to the manufacturer’s instructions. Briefly, murine peritoneal macrophages were cultured in 24-well plates, pre-incubated for 12 h with different concentrations of compounds 1–3, and then stimulated for 18 h with LPS. The cell culture supernatants were then immediately collected after treatment and centrifuged at 13,000× g for 2 min to remove particulate matter. The medium was added to a 96-well plate pre-coated with affinity-purified PGE2-specific polyclonal antibodies or the medium was added to a 96-well plate pre-coated with affinity-purified polyclonal antibodies that were specific to mouse TNF-α or IL-1β. An enzyme-linked polyclonal antibody specific for PGE2, mouse TNF-α or IL-1β was added to the wells for 20 h, followed by a final wash to remove any unbound antibody-enzyme reagent. A substrate solution was added, and the intensity of the color produced, which was measured at 450 nm (the correction wavelength was set at 540 nm or 570 nm), was proportional to the amount of PGE2, TNF-α or IL-1β present.
On the technique in general: An ELISA detects its analyte on a solid surface through an enzyme-linked reagent.

In experiment [2] the target is T1, PTP1B (human, recombinant) (Homo sapiens, UniProt P18031).
T1 construct: purchased BIOMOL Research Laboratories, Inc
T1 sequence (P18031 1-435): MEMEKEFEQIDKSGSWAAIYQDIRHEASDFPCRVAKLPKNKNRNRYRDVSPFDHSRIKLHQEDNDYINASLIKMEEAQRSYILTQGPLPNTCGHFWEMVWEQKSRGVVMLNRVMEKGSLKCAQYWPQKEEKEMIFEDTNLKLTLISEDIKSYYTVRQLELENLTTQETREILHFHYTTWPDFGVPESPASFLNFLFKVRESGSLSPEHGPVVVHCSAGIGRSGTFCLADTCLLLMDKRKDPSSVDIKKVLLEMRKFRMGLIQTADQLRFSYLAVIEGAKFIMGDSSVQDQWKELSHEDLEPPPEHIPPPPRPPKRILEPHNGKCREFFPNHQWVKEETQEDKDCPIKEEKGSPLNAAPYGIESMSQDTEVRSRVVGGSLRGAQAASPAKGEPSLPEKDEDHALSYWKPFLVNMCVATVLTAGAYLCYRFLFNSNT
Kind of experiment: PTP1B assay (pNPP hydrolysis). The format is biochemical. The protocol:
PTP1B (human, recombinant) was purchased from BIOMOL Research Laboratories, Inc. Enzyme activity was measured in a reaction mixture containing 2 mM p-nitrophenyl phosphate (pNPP) in 50 mM citrate, pH 6.0 (composition: 0.1 M NaCl, 1 mM EDTA, and 1 mM dithiothreitol (DTT)). The reaction mixture was placed in an incubator maintained at 30 °C for 30 min, and the reaction was terminated by the addition of 1 N NaOH. The amount of p-nitrophenol produced was estimated by measuring the increase in absorbance at 405 nm. The nonenzymatic hydrolysis of 2 mM pNPP was corrected by measuring the increase in absorbance at 405 nm in the absence of PTP1B enzyme. For the kinetic analysis, the reaction mixture consisted of different concentrations of pNPP as a PTP1B substrate in the absence or presence of compound 1, and assays were performed as described above. The Michaelis-Menten constant (Km) and maximum velocity (Vmax) of PTP1B were determined by the Lineweaver-Burk plot using a GraphPad Prism® 4 program (GraphPad Software Inc., San Diego, CA, USA).

Experiment [3] deals with COX-2-derived PGE2 production in murine peritoneal macrophages. Kind of experiment: PGE2 production in LPS-stimulated macrophages, ELISA. The experiment is classed as cell-based, murine (C57BL/6 mice). Particulars: Mus musculus, Peritoneal macrophage; pre-treated 12 h, LPS 1 μg/mL 18 h. The protocol: as §1
Another experiment concerns HO-1. As to the kind of experiment: Western blotting of HO-1 protein expression in macrophages. The experiment is classed as cell-based, murine (C57BL/6 mice). The protocol:
Figure 6 The effects of penstyrylpyrone (1) on the protein expression of HO-1 in murine peritoneal macrophages. Murine peritoneal macrophages were incubated for 12 h with the indicated concentrations of penstyrylpyrone (1). […] Representative blots of three independent experiments are shown. The data represent the mean ± SD of three experiments. * p < 0.05 compared with the control group.
C57BL/6 mice were purchased from Orient Bio Co. (Sungnam, Kyung-Kido, Korea). TG-elicited peritoneal macrophages were harvested four days after intraperitoneal (i.p.) injection of 3 mL of TG [37]. Peritoneal lavage was performed using 8 mL of Hanks’ Balanced Salt Solution containing 10 U/mL heparin. The cells were distributed in Roswell Park Memorial Institute medium (RPMI) supplemented with 10% heat-inactivated FBS, in 6-well tissue culture plates (5 × 10^6 cells/mL).
Western blotting analysis was performed by lysing the cells in 20 mM Tris-HCl buffer (pH 7.4) containing a protease inhibitor mixture (0.1 mM PMSF, 5 mg/mL aprotinin, 5 mg/mL pepstatin A, and 1 mg/mL chymostatin). The protein concentration was determined using a Lowry protein assay kit (P5626; Sigma Chemical Co., St. Louis, MO, USA). An equal amount of protein for each sample was resolved using 12% sodium dodecyl sulfate-polyacrylamide gel electrophoresis (SDS-PAGE) and then electrophoretically transferred onto a Hybond enhanced chemiluminescence (ECL) nitrocellulose membrane (Bio-Rad, Hercules, CA, USA). The membrane was blocked with 5% skimmed milk and sequentially incubated with primary antibody (Santa Cruz Biotechnology, Santa Cruz, CA, USA) and horseradish peroxidase-conjugated secondary antibody followed by ECL detection (Amersham Pharmacia Biotech, Piscataway, NJ, USA).
A general note: Immunoblotting shows a protein as a band on a membrane.

In experiment [4] the test system is IL-1β production in murine peritoneal macrophages. Kind of experiment: IL-1β production in LPS-stimulated macrophages, ELISA. The format is cell-based, murine (C57BL/6 mice). As to conditions: Mus musculus, Peritoneal macrophage; pre-treated 12 h, LPS 1 μg/mL 18 h. The protocol: as §1

For `COc1cc(/C=C/c2ccccc2)oc(=O)c1C` [Penstyrylpyrone (1), penstyrylpyrone], the IC50 in experiment [1] came to 18.3 µM; in experiment [2] (2 mM pNPP, pH 6.0, 30 °C, 30 min, read-out: PTP1B inhibitory activity IC50), 5.28 µM; in experiment [3], 9.35 µM; in experiment [4] it was 13.5 µM. The “Mode of PTP1B inhibition (Lineweaver-Burk, non-linear regression)” value in experiment [2] (different concentrations of pNPP) is on record as “competitive”. Moreover, the “Time at which HO-1 protein expression began to increase” value in the experiment on HO-1 (40 μM) amounted to 6 h. In addition, the “Time of maximum level of HO-1 protein expression” value in the experiment on HO-1 (40 μM) is listed as 18 h. Besides, the HO-1 protein expression result in the experiment with HO-1 (5–40 μM for 12 h) was “concentration-dependent increase”. In the experiment on HO-1 (12 h), the “Concentration giving a considerable increase in HO-1 expression” value was “above 10 μM”.
